Experimental data from patent US20150328329A1, “LIGANDS THAT TARGET HCV-E2 BINDING SITES ON CD81 AND THERAPEUTIC METHODS USING THEM” (American University of Cairo, priority 2012, published 2015).

Experiments:
recombinant CD81-LEL = molecular target: T1, recombinant CD81-LEL (Homo sapiens, UniProt P60033); assay: SPR (Biacore T100) binding of additional ligands to immobilized CD81-LEL (Example 6); details: Table E, ligand 200 uM in PBS-1% DMSO
T1 construct: the large extracellular loop of CD81 (CD81-LEL); GST; His; Shoshana Levy Lab, Stanford (gift)
T1 sequence (P60033 113-201 limits assumed): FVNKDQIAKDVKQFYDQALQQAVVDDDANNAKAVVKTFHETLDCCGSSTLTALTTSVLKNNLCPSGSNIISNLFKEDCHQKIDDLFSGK
Procedure: SPR analysis was performed using a Biacore T100 workstation (GE Healthcare, NJ, USA). A recombinant form of the CD81-LEL protein with a GST-tag (Shoshana Levy Lab-Stanford) was used to determine the binding affinities of the ligands in the above list. 10 uM CD81-LEL-His diluted into 10 mM sodium acetate buffer pH 4.5 was immobilized for […] at a flow speed of 5 ul/min onto a CM5 sensor chip using amine coupling (EDC-NHS). Approximately 20,000 RU of protein were immobilized on the chip. The ligands were prepared as 200 uM solutions in PBS-1% DMSO (the running buffer) and they were introduced to the protein using a pre-programmed 3 min association and 1 min dissociation interval. Ligands that bind have a positive RU (response units) number and the strength of binding to the CD81 protein is related to the magnitude of the RU number; the larger the number the more binding.

[1] = molecular target: T2, recombinant CD81-LEL (GST tag) (Homo sapiens, UniProt P60033); assay: Surface plasmon resonance (Biacore T200) binding of ligands to immobilized recombinant CD81-LEL; details: Table A; ligand 600 μM in PBS-0.05% Tween-80; CD81-LEL-GST on CM5 chip
T2 construct: the large extracellular loop of CD81 (CD81-LEL); gift of Dr. Shoshana Levy, Stanford University
T2 sequence (P60033 113-201 limits assumed): T1 sequence (P60033 113-201 limits assumed)
Procedure: SPR analysis was performed using a Biacore T200 workstation (GE Healthcare, NJ, USA). A recombinant form of the CD81-LEL protein with a GST tag (generously provided by Dr. Shoshana Levy, Stanford University) was used to confirm, using an established experimental technique, the binding of several ligands to the protein. Briefly, 10 μM CD81-LEL-GST diluted into 10 mM Na-Acetate buffer pH 4.5 was immobilized for 15 min at a flow speed of 5 μl/min onto a CM5 sensor chip using amine-coupling (EDC-NHS). Approximately 20,000 RU of protein were immobilized on the chip. The ligands were prepared as 600 μM solutions in PBS-0.05% Tween-80 (the running buffer) and they were introduced to the protein using a pre-programmed 3 minute association and 1 minute dissociation interval.
The binding affinity of the most tightly bound ligand in the group selected for ligand conjugate design (Ligand 1) was estimated using data collected from a series of SPR binding experiments conducted at different ligand concentrations. To obtain the kinetic and affinity data needed to estimate the Kd, the original ligand was diluted serially with running buffer to produce seven different ligand concentrations: 1024 μM, […], 256 μM, 128 μM, 64 μM, 32 μM and 0 μM. Data were fitted using a monovalent binding model.
A total of 36 ligands were tested experimentally using surface Plasmon resonance (on a Biacore T200 instrument) to identify which of the molecules calculated to bind to Sites 1 and 2 on CD81 actually bind to a recombinant form of the protein (CD81-LEL). Twenty-six of the molecules provided a positive change in response units (RU) upon introduction to a chip containing the immobilized protein (Table A), indicating the ligands bound to the protein. The measured responses for the ligands that bound varied from 2.3 to 78.4 RU. Those ligands providing the largest responses tended to be molecules that were calculated to bind more deeply inside cavities in Site 1 (ligands 30930, 98026, 7436, 5069), Site 2 (ligands 127947, 38743) or Site 4 (ligands 78623, 16631).
Experimental analysis of ligand binding to recombinant CD81 LEL. Forty ligands calculated by AutoDock to bind to sites 1 and 2 on CD81-LEL were tested experimentally using surface Plasmon resonance as described in the Materials and Methods section. Ligand code numbers are those assigned by the National Cancer Institute. […] Because the binding experiments were performed by passing the same concentration of each ligand sequentially across the same protein coated chip using both techniques, the magnitude of the responses can be used to provide an approximate ranking of binding strength.

[2] = molecular target: T3, native CD81 on Raji cells (Homo sapiens, UniProt P60033); assay: Competition assay: inhibition of FITC-labeled JS-81 anti-CD81 antibody binding to native CD81 on live Raji cells (flow cytometry); assay type: cell-based
T3 construct: endogenous in cells; host or cells: Raji (human B cell line)
T3 sequence (P60033 1-236): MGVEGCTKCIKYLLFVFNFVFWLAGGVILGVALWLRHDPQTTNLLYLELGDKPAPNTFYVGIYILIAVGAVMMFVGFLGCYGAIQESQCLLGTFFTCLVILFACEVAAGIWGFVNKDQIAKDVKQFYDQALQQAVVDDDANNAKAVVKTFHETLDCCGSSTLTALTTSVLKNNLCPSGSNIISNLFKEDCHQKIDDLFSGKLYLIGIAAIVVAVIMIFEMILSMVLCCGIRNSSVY
Excerpt: A subset of these ligands and some of those listed in the patent have been tested to identify those ligands that bind to the correct region of the CD81 protein and for binding to native CD81 on living cells (a Raji cell line). This assay tests three concentrations of the ligand to determine if the ligand is capable of inhibiting the binding of an antibody called JS-81. This antibody is known to bind to the region of the CD81 protein we have targeted. If the ligand decreases JS-81 binding as you increase the concentration of the ligand, it is 1) binding to native CD81 on the Raji cells and 2) it is binding to the correct region of the protein.
For antibody neutralization assay Raji cells were used, a human B cell line that expressed high amounts of CD81 on the surface (data not shown). Cells were grown in RPMI medium (10% FCS, 1% penicillin/streptomycin, 1% L-glutamine, 1% non-essential amino acids, 1% sodium pyruvate, pH 7.4, at 37° C. with 5% CO2). 2×10^5 cells were incubated with or without different concentrations (50 μM, 100 μM, 400 μM and 1 mM) of indicated inhibitor for 20 min at room temperature, subsequently 1 ul (16 ng/μl) of FITC-labeled anti CD81 antibody (BD Pharmingen, 551108) was added to the cells and incubated for 20 min (antibody titration was performed to obtain a working dilution range, data not shown). Cells were washed and analyzed by flow cytometry using fluorescence-activated cell sorting (FACS) (BD FACSCalibur, software: Cell Quest Pro). Mean Fluorescence Intensity MFI was calculated using Flowjo software (TreesStar, www.flowjo.com).

Row | Compound | Binding (RU) (recombinant CD81-LEL) | SPR Response Units [1] | Inhibition of JS-81 Binding (%) ([2]; 50 μM ligand) | Inhibition of JS-81 Binding (%) ([2]; 100 μM ligand) | Inhibition of JS-81 Binding (%) ([2]; 400 μM ligand)
1 | CC1CCCC(CC(=O)O)(CC(=O)O)C1 (stereo not drawn) [Ligand 3001] | 4.6 RU |  |  |  | 
2 | O=C(O)CC1OCC=C2CN3CCC45C6=CC(=O)C(=O)C([N+](=O)[O-])=C6NC4C1C2CC35 (stereo not drawn) [Ligand 5069] |  | 67.5 RU |  |  | 
3 | Cc1ccc(NC(=S)NC(=O)c2ccccc2)cc1NC(=S)NC(=O)c1ccccc1 [Ligand 5856] | 2.7 RU |  |  |  | 
4 | CCC(C)(C)c1ccc(Oc2cccc(C(=O)O)c2)cc1 [Ligand 7962] | 14.7 RU |  | 0% | 0% | 19%
5 | CC(C)(C)c1ccc(OCC(=O)O)cc1 [Ligand 8481] | 1.8 RU |  |  |  | 
6 | Cn1ncc2c(Nc3ccc(Br)cc3)nc(Nc3ccc(Br)cc3)nc21 [Ligand 11667] | 9.6 RU |  |  |  | 
7 | O=C(O)CSc1nc2ccccc2s1 [Ligand 11891] |  | 15.2 RU |  |  | 
8 | CCNc1ccccc1C(=O)O [Ligand 16162] | 5.1 RU |  |  |  | 
9 | O=C(O)c1ccc(O)c(O)c1 [Ligand 16631] |  | 61.8 RU |  |  | 
10 | CC(C)Oc1ccc(C(=O)O)cc1 [Ligand 16646] | 4.9 RU |  |  |  | 
11 | N=C(N)Nc1ccc(NC(=N)N)cc1 [Ligand 20586] | 17.4 RU |  |  |  | 
12 | O=C(O)/C=C\c1cc2c(cc1[N+](=O)[O-])OCO2 [Ligand 21034] |  | 21.1 RU |  |  | 
13 | O=C(O)c1ccc(N2CCCCC2)cc1O [Ligand 23895] | 10 RU |  | 0% | 0% | 17%
14 | CC(C)OC1CCCC(O)C1CC(=O)O (stereo not drawn) [Ligand 25368] |  | 13.3 RU |  |  | 
15 | Cc1ccc(-c2cc(C(=O)O)c3ccccc3n2)c(C)c1 [Ligand 25678] | 11.1 RU |  | 0% | 4% | 19%
16 | O=C(O)c1[nH]c(=O)[nH]c(=O)c1F [Ligand 31712] | 4.1 RU |  |  |  | 
17 | O=C(O)/C(=C/c1ccccc1)c1ccccc1 [Ligand 40614] | 50.8 RU |  | 0% | 8% | 26%
18 | C=CCc1ccccc1OCC(=O)O [Ligand 60239] | 5.8 RU |  |  |  | 
19 | CC(OC(=O)Nc1cccc(Cl)c1)C(=O)O (stereo not drawn) [Ligand 73170] | 4.3 RU |  |  |  | 
20 | CNC1(C(N)=O)CCNCC1 [Ligand 75846] |  |  | 0% | 0% | 52%
21 | O=C(O)Cn1ccc2ccccc21 [Ligand 75866] | 18.9 RU |  | 0% | 1% | 31%
22 | COc1cccc(C2Nc3cccc4cccc(c34)N2)c1 [Ligand 76823] | 5.4 RU |  |  |  | 
